Test results from patent US12133841B2, “Heterocyclic compounds as kinase inhibitors, compositions comprising the heterocyclic compound, and methods of use thereof” (JS INNOMED HOLDINGS LTD., priority 2018, dated 2024).

Legend:
human ERK2 = biological target: T1, human ERK2 (Homo sapiens, UniProt P28482); assay: LanthaScreen TR-FRET ERK2 enzymatic assay; conditions: 5 μM ATP, one hour reaction; read-out: ERK2 Biochemical Activity (IC50 of ERK2 inhibition)
T1 construct: recombinantly expressed as GST-tagged full-length protein purified from E. coli; GST; purchased Invitrogen PV3311; host or cells: E. coli
T1 sequence (P28482 whole entry): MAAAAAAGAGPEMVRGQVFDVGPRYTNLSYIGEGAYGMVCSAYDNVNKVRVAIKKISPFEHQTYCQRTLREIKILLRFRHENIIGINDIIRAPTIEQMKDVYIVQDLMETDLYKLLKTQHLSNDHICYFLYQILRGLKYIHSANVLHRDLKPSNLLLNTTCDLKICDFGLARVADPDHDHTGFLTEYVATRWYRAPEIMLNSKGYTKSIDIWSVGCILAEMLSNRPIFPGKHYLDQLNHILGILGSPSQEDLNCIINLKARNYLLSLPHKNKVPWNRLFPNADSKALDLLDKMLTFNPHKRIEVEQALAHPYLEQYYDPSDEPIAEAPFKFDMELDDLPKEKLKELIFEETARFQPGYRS
Description: Compounds were tested in a LanthaScreen™ time-resolved fluorescence energy transfer (TR-FRET) enzymatic assay from Invitrogen. The assay used human ERK2 (Mitogen Activated Kinase 1, Invitrogen, Cat. PV3311) recombinantly expressed as GST-tagged full-length protein purified from E. coli and activated in vitro with MAP2K1. The substrate was a recombinant truncated version (residues 19-96) of ATF2 fused with Green Fluorescent Protein (Invitrogen, Cat. PV4445). Test compounds were prepared and diluted in DMSO in 3-fold serial dilutions to 100× of the final testing concentrations. The compounds were then further diluted to 4× by the kinase reaction buffer (Invitrogen, Cat. PV3189). The enzymatic reaction for compound testing was performed in a white 384-well polypropylene plate (Packard, Cat. 6005214) with a total reaction volume of 10 μl containing 20 ng/ml ERK2, 400 nM substrate, and 5 μM ATP that is around its Km. The assay started with loading 2.5 μl of ERK2 diluted in kinase reaction buffer to wells, followed by addition of equal volume of 4× compounds for 15-min incubation at the room temperature for pre-treatment. The enzymatic reaction was initiated by addition of 5 μl of mixture of the substrate and ATP prepared in kinase reaction buffer. After one hour reaction, 10 μl mixture of EDTA (final 10 mM) and terbium-labeled anti-pATF2 (pThr71) antibody (final 2 nM) (Invitrogen, Cat. PV4451) prepared in TR-FRET antibody dilution buffer (Invitrogen, Cat. PV3574) was added to stop the enzymatic reaction and produce TR-FRET signals. After 30 minutes of incubation at room temperature, the plate was read in Tecan Infinite F200 Pro with the following settings: Excitation 340 nm (30)/Emission1 495 nm (10)/Emission2 520 nm (25). The TR-FRET values were dimensionless numbers that were calculated as the ratio of the acceptor ([…]) signal to the donor (Terbium) signal. Percent of control was calculated as the percentage of compound-treated vs 1% DMSO vehicle-treated. The dose-response curves were generated and the IC50s were calculated by nonlinear sigmoid curve fitting using GraphPad Prism.
The IC50 values of ERK2 inhibition for compounds disclosed are listed in Table 3, A: ≤10 nM; B: >10 nM and ≤100 nM; C: >100 nM and ≤1 uM; D: >1 μM.

Colo205 cell line = assay: Colo205 cell proliferation assay (MTT assay, WST-8); type: cell-based; conditions: Homo sapiens, COLO 205; 72 hours incubation; read-out: Colo 205 Cell Activity (IC50 of growth inhibition in Colo 205 cells)
Description: Compounds disclosed herein were tested for the inhibition of ERK2 by a Colo205 cell proliferation assay commonly known as MTT assay. In this assay, a complete media was prepared by adding 10% fetal bovine serum to RPMI-1640 medium (Life technology). Colon cancer cells (Colo205 cell line) were added to each of 88 wells of a 96 well plate at a seeding density of 5,000 cells/well/90 μL. The cells were allowed to attach to the plate by incubating at 37° C. for 24 hours. The compound was dissolved in DMSO (SIGMA). A solution of test compound was prepared in complete media by serial dilution to obtain the following concentrations: 500 μM, 150 μM, 50 μM, 15 μM, 5 μM, 1.5 μM, 0.5 μM, 0.15 μM and 0.05 μM. The test compound solution (10 μL) was added to each of 80 cell-containing wells. The final concentrations of the compound were following: 50 μM, 15 μM, 5 μM, 1.5 μM, 0.5 μM, 0.15 μM, 0.05 μM, 0.015 μM and 0.005 μM. The final concentration of DMSO is 0.5%. To the 8 remaining cell-containing wells, only complete media (containing 0.5% DMSO) was added to form a control group in order to measure maximal proliferation. To the remaining 8 empty wells, complete media was added to for a vehicle control group in order to measure background. The plates were incubated at 37° C. for 72 hours. 10 μL WST-8 solution (DOJINDO, Cell Counting KIT-8) was added to each well. The plates were further incubated at 37° C. for 2 hours, and then read for the absorbance using a microplate reader at 450 nm.
The IC50 values of growth inhibition in Colo 205 cells for compounds disclosed are listed in Table 3, A′: ≤0.5 μM; B′: >0.5 μM and ≤1 μM; C′: >1.0 μM and ≤5 uM; D′: >5 μM.

Structure (SMILES)	IC50 (human ERK2) [nM]	IC50 (Colo205 cell line) [nM]
Cn1nccc1Nc1nccc(-c2cc3c(s2)C(C)(C)N(Cc2cccc(Cl)c2)C3=O)n1 [Example 2, 5-(3-chlorobenzyl)-6,6-dimethyl-2-(2-(1-methyl-1H-pyrazol-5-ylamino)pyrimidin-4-yl)-5,6-dihydro-4H-thieno[2,3-c]pyrrol-4-one]	≤ 10	≤ 500
Cn1nccc1Nc1nccc(-c2cc3c(s2)C(C)(C)N(Cc2cccc(C(F)(F)F)n2)C3=O)n1 [Example 3, 6,6-dimethyl-2-(2-((1-methyl-1H-pyrazol-5-yl)amino)pyrimidin-4-yl)-5-((6-(trifluoromethyl)pyridin-2-yl)methyl)-5,6-dihydro-4H-thieno[2,3-c]pyrrol-4-one]	≤ 10	≤ 500
Cn1nccc1Nc1nccc(-c2cc3c(s2)C(C)(C)N(Cc2nc(C(F)(F)F)cs2)C3=O)n1 [Example 5, 6,6-dimethyl-2-(2-((1-methyl-1H-pyrazol-5-yl)amino)pyrimidin-4-yl)-5-((4-(trifluoromethyl)thiazol-2-yl)methyl)-5,6-dihydro-4H-thieno[2,3-c]pyrrol-4-one]	≤ 10	≤ 500
Cn1nccc1Nc1nccc(-c2cc3c(s2)C(C)(C)N(Cc2cc(C(F)(F)F)no2)C3=O)n1 [Example 7, 6,6-dimethyl-2-(2-((1-methyl-1H-pyrazol-5-yl)amino)pyrimidin-4-yl)-5-((3-(trifluoromethyl)isoxazol-5-yl)methyl)-5,6-dihydro-4H-thieno[2,3-c]pyrrol-4-one]	≤ 10	≤ 500
Cn1nccc1Nc1nccc(-c2cc3c(s2)C(C)(C)N([C@H](CO)c2cccc(Cl)c2)C3=O)n1 [Example 11, (S)-5-(1-(3-chlorophenyl)-2-hydroxyethyl)-6,6-dimethyl-2-(2-((1-methyl-1H-pyrazol-5-yl)amino)pyrimidin-4-yl)-5,6-dihydro-4H-thieno[2,3-c]pyrrol-4-one]	–	≤ 500
Cn1nccc1Nc1nccc(-c2cc3c(s2)C(C)(C)N(CC(=O)N[C@H](CO)c2cccc(Cl)c2)C3=O)n1 [Example 14, (S)—N-(1-(3-chlorophenyl)-2-hydroxyethyl)-2-(6,6-dimethyl-2-(2-((1-methyl-1H-pyrazol-5-yl)amino)pyrimidin-4-yl)-4-oxo-4H-thieno[2,3-c]pyrrol-5(6H)-yl)acetamide]	≤ 10	≤ 500
CC(C(=O)N[C@H](CO)c1cccc(Cl)c1)N1C(=O)c2cc(-c3ccnc(Nc4ccnn4C)n3)sc2C1(C)C (stereo partly drawn) [Example 15, N—((S)-1-(3-chlorophenyl)-2-hydroxyethyl)-2-(6,6-dimethyl-2-(2-((1-methyl-1H-pyrazol-5-yl)amino)pyrimidin-4-yl)-4-oxo-4H-thieno[2,3-c]pyrrol-5(6H)-yl)propanamide]	–	500 to 1000
Cn1nccc1Nc1nccc(-c2cc3c(s2)C(C)(C)N(CCN[C@H](CO)c2cccc(Cl)c2)C3=O)n1 [Example 17, (S)-5-(2-((1-(3-chlorophenyl)-2-hydroxyethyl)amino)ethyl)-6,6-dimethyl-2-(2-((1-methyl-1H-pyrazol-5-yl)amino)pyrimidin-4-yl)-5,6-dihydro-4H-thieno[2,3-c]pyrrol-4-one]	–	500 to 1000

The next lines start with the values.

IC50 (human ERK2) [nM]	IC50 (Colo205 cell line) [nM]	Structure (SMILES)
≤ 10	≤ 500	CC(c1ccnc(C(F)(F)F)c1)N1C(=O)c2cc(-c3ccnc(Nc4ccnn4C)n3)sc2C1(C)C (racemic) [Example 9, 6,6-dimethyl-2-(2-(1-methyl-1H-pyrazol-5-ylamino)pyrimidin-4-yl)-5-(1-(2-(trifluoromethyl)pyridin-4-yl)ethyl)-5,6-dihydro-4H-thieno[2,3-c]pyrrol-4-one]
≤ 10	≤ 500	CC(c1nc(C(F)(F)F)cs1)N1C(=O)c2cc(-c3ccnc(Nc4ccnn4C)n3)sc2C1(C)C (racemic) [Example 10, 6,6-dimethyl-2-(2-(1-methyl-1H-pyrazol-5-ylamino)pyrimidin-4-yl)-5-(1-(4-(trifluoromethyl)thiazol-2-yl)ethyl)-5,6-dihydro-4H-thieno[2,3-c]pyrrol-4-one]
≤ 10	≤ 500	Cn1nccc1Nc1nccc(-c2cc3c(s2)C(C)(C)N(Cc2ccnc(C(F)(F)F)c2)C3=O)n1 [Example 1, 6,6-dimethyl-2-(2-(1-methyl-1H-pyrazol-5-ylamino)pyrimidin-4-yl)-5-((2-(trifluoromethyl)pyridin-4-yl)methyl)-5,6-dihydro-4H-thieno[2,3-c]pyrrol-4-one]
≤ 10	500 to 1000	Cn1nccc1Nc1nccc(-c2cc3c(s2)C(C)(C)N(Cc2ccc(C(F)(F)F)nc2)C3=O)n1 [Example 4, 6,6-dimethyl-2-(2-((1-methyl-1H-pyrazol-5-yl)amino)pyrimidin-4-yl)-5-((6-(trifluoromethyl)pyridin-3-yl)methyl)-5,6-dihydro-4H-thieno[2,3-c]pyrrol-4-one]
≤ 10	≤ 500	Cn1nccc1Nc1nccc(-c2cc3c(s2)C(C)(C)N(Cc2ccnc(C(F)(F)F)n2)C3=O)n1 [Example 6, 6,6-dimethyl-2-(2-((1-methyl-1H-pyrazol-5-yl)amino)pyrimidin-4-yl)-5-((2-(trifluoromethyl)pyrimidin-4-yl)methyl)-5,6-dihydro-4H-thieno[2,3-c]pyrrol-4-one]
–	1000 to 5000	Cn1nccc1Nc1nccc(-c2cc3c(s2)C(C)(C)N(CCc2ccnc(C(F)(F)F)c2)C3=O)n1 [Example 8, 6,6-dimethyl-2-(2-((1-methyl-1H-pyrazol-5-yl)amino)pyrimidin-4-yl)-5-(2-(2-(trifluoromethyl)pyridin-4-yl)ethyl)-5,6-dihydro-4H-thieno[2,3-c]pyrrol-4-one]
–	1000 to 5000	CC(c1cccc(C(F)(F)F)n1)N1C(=O)c2cc(-c3ccnc(Nc4ccnn4C)n3)sc2C1(C)C (stereo not shown) [Example 12, 6,6-dimethyl-2-(2-((1-methyl-1H-pyrazol-5-yl)amino)pyrimidin-4-yl)-5-(1-(6-(trifluoromethyl)pyridin-2-yl)ethyl)-5,6-dihydro-4H-thieno[2,3-c]pyrrol-4-one]
10 to 100	≤ 500	CC(c1ccnc(C(F)(F)F)n1)N1C(=O)c2cc(-c3ccnc(Nc4ccnn4C)n3)sc2C1(C)C (stereo not shown) [Example 13, 6,6-dimethyl-2-(2-((1-methyl-1H-pyrazol-5-yl)amino)pyrimidin-4-yl)-5-(1-(2-(trifluoromethyl)pyrimidin-4-yl)ethyl)-5,6-dihydro-4H-thieno[2,3-c]pyrrol-4-one]
–	1000 to 5000	Cn1nccc1Nc1nccc(-c2cc3c(s2)C(C)(C)N(CC(=O)NCc2ccnc(C(F)(F)F)c2)C3=O)n1 [Example 16, 2-(6,6-dimethyl-2-(2-((1-methyl-1H-pyrazol-5-yl)amino)pyrimidin-4-yl)-4-oxo-4H-thieno[2,3-c]pyrrol-5(6H)-yl)-N-((2-(trifluoromethyl)pyridin-4-yl)methyl)acetamide]
